Source: patent publication US20230250096A1, “SUBSTITUTED PHENYL-1H-PYRROLO[2,3-c] PYRIDINE DERIVATIVES” (Janssen Pharmaceutica NV, priority 2021, published 2023)

What follows are molecules tested on KO-52 cells (assay: Proliferation assay (spheroid confluence, 8 days), KO-52 control cell line). Conditions: Homo sapiens, read-out: spheroid assay_KO-52 IC50.
Format: cell-based, human
Protocol: The anti-proliferative effect of menin/MLL protein/protein interaction inhibitor test compounds was assessed in human leukemia cell lines. The cell line MOLM14 harbors a MLL translocation and expresses the MLL fusion protein MLL-AF9, respectively, as well as the wildtype protein from the second allele. OCI-AML3 cells that carry the NPM1c gene mutation were also tested. […] KO-52 was used as a control cell line containing two MLL (KMT2A) wildtype alleles in order to exclude compounds that display general cytotoxic effects.
MOLM14 cells were cultured in RPMI-1640 (Sigma Aldrich) supplemented with 10% heat-inactivated fetal bovine serum (HyClone), 2 mM L-glutamine (Sigma Aldrich) and 50 μg/ml gentamycin (Gibco). KO-52 and OCI-AML3 cell lines were propagated in alpha-MEM (Sigma Aldrich) supplemented with 20% heat-inactivated fetal bovine serum (HyClone), 2 mM L-glutamine (Sigma Aldrich) and 50 μg/ml gentamycin (Gibco).
In order to assess the anti-proliferative effects, 200 MOLM14 cells, 200 OCI-AML3 cells or 300 KO-52 cells were seeded in 200 μl media per well in 96-well round bottom, ultra-low attachment plates (Costar, catalogue number 7007). Cell seeding numbers were chosen based on growth curves to ensure linear growth throughout the experiment. Test compounds were added at different concentrations and the DMSO content was normalized to 0.3%. Cells were incubated for 8 days at 37° C. and 5% CO2. Spheroid like growth was measured in real-time by live-cell imaging (IncuCyteZOOM, Essenbio, 4×objective) acquiring images at day 8. Confluence (%) as a measure of spheroid size was determined using an integrated analysis tool.
In order to determine the effect of the test compounds over time, the confluence in each well as a measure of spheroid size, was calculated. Confluence of the highest dose of a reference compound was used as baseline for the LC (Low control) and the confluence of DMSO treated cells was used as 0% cytotoxicity (High Control, HC).
Absolute IC50 values were calculated as percent change in confluence as follows:
LC=Low Control: cells treated with e.g. 1 μM of the cytotoxic agent staurosporin, or e.g. cells treated with a high concentration of an alternative reference compound
HC=High Control: Mean confluence (%) (DMSO treated cells)
% Effect=100−(100*(Sample−LC)/(HC−LC))
GraphPad Prism (version 7.00) was used to calculate the IC50. Dose-response equation was used for the plot of % Effect vs Log10 compound concentration with a variable slope and fixing the maximum to 100% and the minimum to 0%.
`CNC(=O)[C@H]1CC[C@@H](CN2CC[C@@H](Cc3cn(-c4ccc(F)cc4C(=O)N(C)C(C)C)c4cncc(C)c34)C2)CC1` [Compound 185] was tested, and the IC50 was 11 µM. `CC(=O)NC1CCC(N2CC[C@H](Cc3cn(-c4ccc(F)cc4C(=O)N(C)C(C)C)c4cncc(C)c34)C2)CC1` (stereo partly drawn) [Compound 211] was tested, and the IC50 was greater than 15 µM. For `CC(=O)N1CCN(CCCC(C(C)C)N2CC[C@H](Cc3cn(-c4ccc(F)cc4C(=O)N(C)C(C)C)c4cncc(C)c34)C2)CC1` (mixture of isomers) [Compound 9], the IC50 was 5.6 µM. Work on `CC(=O)N1CC2CC(C1)C2N1CC[C@@H](Cc2cn(-c3ccc(F)cc3C(=O)N(C)C(C)C)c3cncc(C)c23)C1` (stereo partly drawn) [Compound 209] yielded an IC50 of 12.8 µM. `CCC([C@H]1C[C@@H](N2CCN(C(C)=O)CC2)C1)N1CC[C@@H](Cc2cn(-c3ccc(F)cc3C(=O)N(C)C(C)C)c3cncc(C)c23)C1` (mixture of isomers) [Compound 24] was tested, and the IC50 was 8.5 µM. `Cc1cncc2c1c(C[C@@H]1CCN(CC3CCNC(=O)CC3)C1)cn2-c1ccc(F)cc1C(=O)N(C)C(C)C` (mixture of isomers) [Compound 169] was tested, and the IC50 was 10 µM. With `Cc1cncc2c1c(C[C@@H]1CCN([C@H](C)C3CCOCC3)C1)cn2-c1ccc(F)cc1[S@](=N)(=O)C(C)C` (single isomer, unassigned) [Compound 180a] the IC50 was 7.2 µM. Molecule `CC(=O)N1CCC(CN2CC[C@@H](Cc3cn(-c4ccc(F)cc4C(=O)N4CCC[C@H]4C)c4cncc(C)c34)C2)CC1` [Compound 315] has an IC50 of 2.4 µM. With `COCCN(C)CCCC(C(C)C)N1CC[C@@H](Cc2cn(-c3ccc(F)cc3C(=O)N(C)C(C)C)c3cncc(Cl)c23)C1` (stereo partly drawn) [Compound 3] the IC50 was 1.1 µM. Work on `CC(=O)N1CCC(CN2CC[C@@H](Cc3cn(-c4ccc(F)cc4C(=O)N4CCC5CC54)c4cncc(C)c34)C2)CC1` (stereo partly drawn) [Compound 311] yielded an IC50 of 5.2 µM. `CC(=O)N1CCC(CN2CC[C@@H](Cc3cn(-c4ccc(F)cc4C(=O)N4CCC[C@@H]4C)c4cncc(C)c34)C2)CC1` [Compound 319] was tested, and the IC50 was greater than 15 µM. For `Cc1cncc2c1c(CC1CN(CC3CCOCC3)C1)cn2-c1ccc(F)cc1C(=O)N1CCC2CC21` (stereo not drawn) [Compound 262], the IC50 was 2.9 µM. `COCCN(C)CCCC(C(C)C)N1CCC(Cc2cn(-c3ccc(F)cc3C(=O)N(C)C(C)C)c3cncc(F)c23)C1` (stereo not drawn) [Compound 6] showed an IC50 of 1.5 µM. For `Cc1cncc2c1c(C[C@H]1CCN([C@H](C)C3CCOCC3)C1)cn2-c1ccc(F)cc1[S@](=N)(=O)C(C)C` (single isomer, unassigned) [Compound 181a], the IC50 was 4.1 µM. In the case of `Cc1cncc2c1c(C[C@@H]1CCN(CC3CCN(C(N)=O)CC3)C1)cn2-c1ccc(F)cc1C(=O)N(C)C(C)C` [Compound 207], the IC50 is reported as 14.3 µM. `CC(=O)N1CCC(CN2CC[C@@H](Cc3cn(-c4ccc(F)cc4C(=O)N4[C@@H](C)CC[C@@H]4C)c4cncc(C)c34)C2)CC1` [Compound 316] showed an IC50 of 8.9 µM. `Cc1cncc2c1c(CC1CN(CC3CCOCC3)C1)cn2-c1ccc(F)cc1C(=O)N1CC2CC1CO2` (stereo not drawn) [Compound 264] gave an IC50 of 13.5 µM. `CC(=O)NC1CCC(N2CC[C@@H](Cc3cn(-c4ccc(F)cc4C(=O)N(C)C(C)C)c4cncc(C)c34)C2)CC1` (stereo partly drawn) [Compound 200] was tested, and the IC50 was greater than 15 µM. `CC(=O)N1CCC(CN2CC[C@@H](Cc3cn(-c4ccc(F)cc4C(=O)N4CC5CC4CO5)c4cncc(C)c34)C2)CC1` (stereo partly drawn) [Compound 312] showed an IC50 greater than 15 µM. With `COC(=O)[C@H]1CC[C@@H](CN2CC[C@@H](Cc3cn(-c4ccc(F)cc4C(=O)N(C)C(C)C)c4cncc(C)c34)C2)CC1` [Compound 153] the IC50 was 7.9 µM. `Cc1cncc2c1c(C[C@@H]1CCN(CC3CCNC(=O)C3)C1)cn2-c1ccc(F)cc1C(=O)N(C)C(C)C` (mixture of isomers) [Compound 212] gave an IC50 greater than 15 µM. Work on `Cc1cncc2c1c(C[C@@H]1CCN(CC3CCOCC3)C1)cn2-c1ccc(F)cc1S(=N)(=O)C(C)C` (mixture of isomers) [Compound 78] yielded an IC50 of 8.4 µM. `CC(=O)N1CC2CC(C1)C2N1CC[C@H](Cc2cn(-c3ccc(F)cc3C(=O)N(C)C(C)C)c3cncc(C)c23)C1` (stereo partly drawn) [Compound 208] showed an IC50 greater than 15 µM. Work on `CC(=O)N1CCC([C@H](CO)N2CC[C@@H](Cc3cn(-c4ccc(F)cc4C(=O)N(C)C(C)C)c4cncc(C)c34)C2)CC1` (single isomer, unassigned) [Compound 206a] yielded an IC50 of 6.6 µM. With `Cc1cncc2c1c(CC1CN(CC3CCOCC3)C1)cn2-c1ccc(F)cc1C(=O)N1CCCC1CO` (stereo not drawn) [Compound 268] the IC50 was greater than 15 µM. `COC[C@H](C1CCCCO1)N1CC[C@@H](Cc2cn(-c3ccc(F)cc3C(=O)N(C)C(C)C)c3cncc(C)c23)C1` (single isomer, unassigned) [Compound 165b] showed an IC50 of 1.9 µM. For `CON(C)C(=O)N1CCC(CN2CCC(Cc3cn(-c4ccc(F)cc4C(=O)N(C)C(C)C)c4cncc(C)c34)CC2)CC1` [Compound 203], the IC50 was 2.9 µM. `COCCN(C)CCCC(C(C)C)N1CC[C@H](Cc2cn(-c3ccc(F)cc3C(=O)N(C)C(C)C)c3cncc(Cl)c23)C1` (stereo partly drawn) [Compound 4] showed an IC50 of 3 µM. In the case of `COCCN(C)CCCC(C(C)C)N1CC[C@H](Cc2cn(-c3ccc(F)cc3C(=O)N(C)C(C)C)c3cncc(C)c23)C1` (single isomer, unassigned) [Compound 2], the IC50 is reported as greater than 15 µM. `CC(=O)N1CCC(CN2CC[C@@H](Cc3cn(-c4ccc(F)cc4C(=O)N(CC(C)O)C(C)C)c4cncc(C)c34)C2)CC1` (stereo partly drawn) [Compound 320] gave an IC50 of 6.9 µM. `Cc1cncc2c1c(CC1CCN(CC3CCN(C(=O)N4CCOCC4)CC3)CC1)cn2-c1ccc(F)cc1C(=O)N(C)C(C)C` [Compound 204] was tested, and the IC50 was 1.6 µM. `CC(=O)N1C[C@@H]2CN(CCC[C@H](C(C)C)N3CC[C@H](Cc4cn(-c5ccc(F)cc5C(=O)N(C)C(C)C)c5cncc(Cl)c45)C3)C[C@H]2C1` (single isomer, unassigned) [Compound 19a] showed an IC50 greater than 15 µM. Molecule `Cc1cncc2c1c(C[C@@H]1CCN(C[C@H]3CCCCN3)C1)cn2-c1ccc(F)cc1C(=O)N(C)C(C)C` [Compound 199] has an IC50 of 11.8 µM. Molecule `CNC(=O)c1cncc(N2CCC(N3CC(Cc4cn(-c5ccc(F)cc5C(=O)N(C)C(C)C)c5cncc(C)c45)C3)CC2)n1` [Compound 75] has an IC50 of 2 µM. Molecule `Cc1cncc2c1c(C[C@@H]1CCN(C[C@@H]3CCOC3)C1)cn2-c1ccc(F)cc1C(=O)N(C)C(C)C` (single isomer, unassigned) [Compound 190b] has an IC50 of 4.9 µM. `CC(=O)N1C[C@@H]2CN([C@H]3C[C@@H](C(C(C)C)N4CC[C@H](Cc5cn(-c6ccc(F)cc6C(=O)N(C)C(C)C)c6cncc(C)c56)C4)C3)C[C@H]2C1` (mixture of isomers) [Compound 21] showed an IC50 of 2 µM. In the case of `Cc1cncc2c1c(C[C@@H]1CCN(C[C@H]3CCOC3)C1)cn2-c1ccc(F)cc1C(=O)N(C)C(C)C` (single isomer, unassigned) [Compound 190a], the IC50 is reported as 10 µM. With `CNC(=O)N1CCC(CN2CCC(Cc3cn(-c4ccc(F)cc4C(=O)N(C)C(C)C)c4cncc(C)c34)CC2)CC1` [Compound 202] the IC50 was 3.4 µM. Work on `CNC(=O)[C@H]1CC[C@H](CN2CC(Cc3cn(-c4ccc(F)cc4C(=O)N(C)C(C)C)c4cncc(C)c34)C2)CC1` [Compound 74] yielded an IC50 of 5.2 µM. `Cc1cncc2c1c(C[C@@H]1CCN(C[C@H]3CC[C@@H](C(=O)N4CCC4)CC3)C1)cn2-c1ccc(F)cc1C(=O)N(C)C(C)C` [Compound 178] showed an IC50 of 2.9 µM. `CC(=O)N1CCN(CCCC(C(C)C)N2CC[C@@H](Cc3cn(-c4ccc(F)cc4C(=O)N(C)C(C)C)c4cncc(C)c34)C2)CC1` (mixture of isomers) [Compound 8] gave an IC50 of 2.4 µM. In the case of `Cc1cncc2c1c(CC1CN(C[C@@H]3CCOC3)C1)cn2-c1ccc(F)cc1C(=O)N(C)C(C)C` (single isomer, unassigned) [Compound 191b], the IC50 is reported as 7 µM. Molecule `Cc1cncc2c1c(CC1CN(CC3CCNC(=O)CC3)C1)cn2-c1ccc(F)cc1C(=O)N(C)C(C)C` (stereo not drawn) [Compound 104] has an IC50 greater than 15 µM. Work on `CN=S(=O)(c1cc(F)ccc1-n1cc(CC2CCN(CC3CCOCC3)C2)c2c(C)cncc21)C(C)C` (stereo not drawn) [Compound 77] yielded an IC50 of 5.8 µM. Molecule `COCCN(C)CCC[C@@H](C(C)C)N1CC[C@H](Cc2cn(-c3ccc(F)cc3C(=O)N(C)C(C)C)c3cncc(Cl)c23)C1` (single isomer, unassigned) [Compound 4b] has an IC50 of 0.5 µM. With `CN=S(=O)(c1cc(F)ccc1-n1cc(CC2CCN(CC3CCN(C(C)=O)CC3)C2)c2c(C)cncc21)C(C)C` (stereo not drawn) [Compound 128] the IC50 was 7.9 µM. For `CC(=O)N1CCN(CCCC(C(C)C)N2CCC(Cc3cn(-c4ccc(F)cc4C(=O)N(C)C(C)C)c4cncc(C)c34)C2)CC1` (single isomer, unassigned) [Compound 9a], the IC50 was 0.6 µM. With `CC(=O)N1CCC(CCN2CC[C@@H](Cc3cn(-c4ccc(F)cc4C(=O)N(C)C(C)C)c4cncc(C)c34)C2)CC1` [Compound 189] the IC50 was 14.4 µM.
